# Assays:
# Experiment in all cases: cell-based
# [1] = target: human ZIP14 (hZIP14) isoform 1, HA-tagged (Homo sapiens, UniProt Q15043)
# human ZIP8 (hZIP8) = human ZIP8 (hZIP8) (Homo sapiens, UniProt Q9C0K1)
# [2] = target: human ZIP14 (hZIP14) isoform 1, HA-tagged (Homo sapiens, UniProt Q15043, D443L)
# human ZIP14 (hZIP14) isoform 1, HA-tagged (Homo sapiens, UniProt Q15043, D443L), sequence (Q15043 31-492 D443L): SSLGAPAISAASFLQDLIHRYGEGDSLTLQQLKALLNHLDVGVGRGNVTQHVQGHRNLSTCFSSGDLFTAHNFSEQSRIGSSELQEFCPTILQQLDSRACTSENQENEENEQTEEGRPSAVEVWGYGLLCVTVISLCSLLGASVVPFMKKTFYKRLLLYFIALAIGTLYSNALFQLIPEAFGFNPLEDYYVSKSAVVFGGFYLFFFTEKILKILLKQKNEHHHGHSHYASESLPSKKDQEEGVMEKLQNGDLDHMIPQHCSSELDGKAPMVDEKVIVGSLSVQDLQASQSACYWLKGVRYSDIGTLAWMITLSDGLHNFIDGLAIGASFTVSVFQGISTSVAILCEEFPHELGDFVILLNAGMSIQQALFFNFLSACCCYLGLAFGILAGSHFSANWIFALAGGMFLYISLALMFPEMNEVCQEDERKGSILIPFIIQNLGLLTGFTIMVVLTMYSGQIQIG
# human ZIP14 (hZIP14) isoform 1, HA-tagged (Homo sapiens, UniProt Q15043), sequence (Q15043 31-492): as the sequence (Q15043 31-492 D443L) above, with L413D counted along it
# human ZIP8 (hZIP8), sequence (Q9C0K1 23-460): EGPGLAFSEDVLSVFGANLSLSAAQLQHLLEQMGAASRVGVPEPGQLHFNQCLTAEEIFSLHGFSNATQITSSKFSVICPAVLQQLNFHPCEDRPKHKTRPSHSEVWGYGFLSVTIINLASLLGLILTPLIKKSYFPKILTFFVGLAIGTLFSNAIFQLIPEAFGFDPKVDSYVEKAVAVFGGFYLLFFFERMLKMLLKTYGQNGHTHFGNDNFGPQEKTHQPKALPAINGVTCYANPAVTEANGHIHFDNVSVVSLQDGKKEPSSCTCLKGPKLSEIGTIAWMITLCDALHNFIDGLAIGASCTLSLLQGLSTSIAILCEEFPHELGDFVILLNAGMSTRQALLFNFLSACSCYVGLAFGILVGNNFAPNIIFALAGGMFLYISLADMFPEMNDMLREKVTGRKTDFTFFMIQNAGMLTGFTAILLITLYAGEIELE
smiles,measurement,setting,value
"O=C1NCN(c2ccccc2)C12CCN(CCc1ccccc1)CC2 [PPTD, 1-phenyl-8-(2-phenylethyl)-1,3,8-triazaspiro[4.5]decan-4-one]",IC50,[1],8.9 µM
same,IC50,human ZIP8 (hZIP8),> 37 µM
same,IC50,[2],19 µM

# Reference: paper doi:10.1101/2025.10.23.682519v1 (biorxiv, 2025)
